Measurements: ChEMBL document CHEMBL1154378, “Histamine H3 and H4 receptor affinity of branched 3-(1H-imidazol-4-yl)propyl N-alkylcarbamates” (Bioorg Med Chem Lett, 2009)

Columns and labels:
Histamine H3 receptor [1] = molecular target: T1, Histamine H3 receptor (Homo sapiens, UniProt Q9Y5N1); test: Displacement of [125I]iodoproxyfan from human histamine H3 receptor expressed in CHO-K1 cells
Histamine H4 receptor [2] = molecular target: T2, Histamine H4 receptor (Homo sapiens, UniProt Q9H3N8); test: Displacement of [3H]histamine from human histamine H4 receptor expressed in HEK293 cells; assay type: cell-based
Homo sapiens = organism: Homo sapiens; test: Selectivity, ratio of Ki for human histaminee H4 receptor to Ki for human histamine H3 receptor
Histamine H4 receptor [3] = molecular target: T2, Histamine H4 receptor; test: Displacement of [3H]histamine from human histamine H4 receptor expressed in SF9 cells coexpressing Galphai2, Gbeta1gamma2
Histamine H3 receptor [4] = molecular target: Histamine H3 receptor (Rattus norvegicus, UniProt Q9QYN8); test: Displacement of [3H]histamine from histamine H3 receptor in rat cerebral cortex; assay type: tissue-based
Histamine H3 receptor [5] = molecular target: T1, Histamine H3 receptor; test: Displacement of […]iodoproxyfan from human histamine H3 receptor expressed in HEK293 cells; assay type: cell-based

T1 sequence (Q9Y5N1 whole entry): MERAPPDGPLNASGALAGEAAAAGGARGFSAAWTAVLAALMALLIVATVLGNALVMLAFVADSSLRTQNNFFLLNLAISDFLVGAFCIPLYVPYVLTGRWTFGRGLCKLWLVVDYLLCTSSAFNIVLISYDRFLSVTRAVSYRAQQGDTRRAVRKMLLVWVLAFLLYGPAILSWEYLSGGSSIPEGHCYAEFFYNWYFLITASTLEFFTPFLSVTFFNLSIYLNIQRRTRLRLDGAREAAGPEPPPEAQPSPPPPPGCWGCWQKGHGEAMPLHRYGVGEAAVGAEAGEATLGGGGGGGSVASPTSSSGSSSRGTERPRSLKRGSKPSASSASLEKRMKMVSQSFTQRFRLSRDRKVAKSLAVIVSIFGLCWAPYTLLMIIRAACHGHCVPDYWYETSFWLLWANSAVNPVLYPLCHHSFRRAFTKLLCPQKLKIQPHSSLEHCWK
Sequence of Histamine H3 receptor (Rattus norvegicus, UniProt Q9QYN8) (Q9QYN8 whole entry): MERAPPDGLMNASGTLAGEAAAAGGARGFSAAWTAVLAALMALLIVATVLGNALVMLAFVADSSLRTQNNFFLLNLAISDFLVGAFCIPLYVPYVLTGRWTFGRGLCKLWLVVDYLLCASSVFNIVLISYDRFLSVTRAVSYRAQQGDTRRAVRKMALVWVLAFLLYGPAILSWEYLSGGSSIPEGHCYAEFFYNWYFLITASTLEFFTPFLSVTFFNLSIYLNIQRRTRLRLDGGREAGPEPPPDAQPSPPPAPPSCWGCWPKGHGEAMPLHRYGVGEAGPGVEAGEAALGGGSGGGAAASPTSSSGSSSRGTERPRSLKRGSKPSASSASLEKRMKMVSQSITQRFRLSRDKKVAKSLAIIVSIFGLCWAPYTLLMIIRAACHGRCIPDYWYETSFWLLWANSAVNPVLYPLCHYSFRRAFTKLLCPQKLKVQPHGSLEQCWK

Row | Ki (Histamine H3 receptor [1]) [nM] | Ratio Ki (Homo sapiens) | Ki (Histamine H4 receptor [3]) [nM] | SMILES | also measured
1 | 49 |  |  | CCC(C)NC(=O)OCCCc1c[nH]cn1 (racemic) | 
2 |  |  |  | O=C(c1ccc(OCCCc2cnc[nH]2)cc1)C1CC1 [CIPROXIFAN] | Ki (Histamine H4 receptor [2]): 612 nM
3 | 29 | 24 | 695 | CCCCC(C)NC(=O)OCCCc1c[nH]cn1 (racemic) | 
4 |  | 22 |  | CCCC[C@@H](C)NC(=O)OCCCc1c[nH]cn1 | 
5 |  | 16 |  | CCCCC[C@@H](C)NC(=O)OCCCc1c[nH]cn1 | 
6 | 42 |  |  | CCCC[C@H](C)NC(=O)OCCCc1cnc[nH]1 | 
7 | 15 |  |  | CCC[C@@H](C)NC(=O)OCCCc1cnc[nH]1 | 
8 | 31 |  |  | CC[C@H](C)NC(=O)OCCCc1c[nH]cn1 | 
9 | 19 |  | 426 | CCCC[C@@H](C)NC(=O)OCCCc1cnc[nH]1 | 
10 |  | 21 |  | CCCCC(CC)CNC(=O)OCCCc1c[nH]cn1 (racemic) | 
11 | 4.7 | 25 | 118 | CC[C@H](C)CNC(=O)OCCCc1c[nH]cn1 | 
12 | 30 |  |  | CC(C)CCC(C)NC(=O)OCCCc1cnc[nH]1 (racemic) | 
13 | 91 |  |  | CCCCCCC(C)NC(=O)OCCCc1c[nH]cn1 (racemic) | 
14 | 12 | 24 | 290 | CC[C@@H](C)NC(=O)OCCCc1c[nH]cn1 | 
15 | 21 |  |  | CCCC(C)NC(=O)OCCCc1c[nH]cn1 (racemic) | 
16 | 13 | 9 | 123 | CCC(C)CCNC(=O)OCCCc1c[nH]cn1 (racemic) | 
17 |  | 20 |  | CCCCC[C@H](C)NC(=O)OCCCc1c[nH]cn1 | 
18 | 75 |  |  | CC(C)CCCC(C)NC(=O)OCCCc1cnc[nH]1 (racemic) | Ki (Histamine H3 receptor [4]): 22 nM
19 |  |  |  | CCCCCC[C@@H](C)NC(=O)OCCCc1c[nH]cn1 | Ki (Histamine H3 receptor [5]): 28 nM
20 |  |  |  | CCCCCC[C@H](C)NC(=O)OCCCc1c[nH]cn1 | Ki (Histamine H3 receptor [5]): 43 nM
21 | 8.3 | 20 | 162 | CCCC(C)CNC(=O)OCCCc1c[nH]cn1 (racemic) | 
22 | 52 |  |  | CCCCCC(C)NC(=O)OCCCc1c[nH]cn1 (racemic) | 
23 | 37 |  | 779 | CCCCC(CC)CNC(=O)OCCCc1cnc[nH]1 (racemic) | 
24 |  |  |  | NC(=NCc1ccc(Cl)cc1)SCCCc1cnc[nH]1 [CLOBENPROPIT] | Ki (Histamine H4 receptor [2]): 4.3 nM
25 | 41 |  | 636 | CCCCC[C@@H](C)NC(=O)OCCCc1cnc[nH]1 | 
26 | 74 |  | 1460 | CCCCC[C@H](C)NC(=O)OCCCc1cnc[nH]1 | 
